Data: the NIST ThermoML archive (doi:10.1016/j.jct.2016.12.012)
Several values for one entry are separate records, joined by “and”; a condition that tells them apart may be missing. Equal values may be shown once. Numbers after ± are expanded uncertainties.

How the values were obtained:
[1] = for Normal melting temperature: DTA
[2] = Molar enthalpy of transition or fusion; details: DSC

COc1ccc(C(C)=O)cc1 [4'-methoxyacetophenone]
[1]
Details | vapor or sublimation pressure [kPa]
296.23 K, Crystal, Closed cell (Static) method | 0.00059 ± 0.00011
298.19 K, Crystal, Closed cell (Static) method | 0.00075 ± 0.00011
300.19 K, Crystal, Closed cell (Static) method | 0.00096 ± 0.00011
302.13 K, Metastable liquid, Closed cell (Static) method | 0.00143 ± 0.00012
302.18 K, Crystal, Closed cell (Static) method | 0.00121 ± 0.00012
304.14 K, Metastable liquid, Closed cell (Static) method | 0.00174 ± 0.00012
304.15 K, Crystal, Closed cell (Static) method | 0.00153 ± 0.00012
306.09 K, Metastable liquid, Closed cell (Static) method | 0.00209 ± 0.00013
306.12 K, Crystal, Closed cell (Static) method | 0.00192 ± 0.00013
308.1 K, Crystal, Closed cell (Static) method | 0.00239 ± 0.00014
308.12 K, Metastable liquid, Closed cell (Static) method | 0.00251 ± 0.00014
310.08 K, Metastable liquid, Closed cell (Static) method | 0.00301 ± 0.00016
312.06 K, Closed cell (Static) method, Liquid | 0.0036 ± 0.00018
314.2 K, Closed cell (Static) method, Liquid | 0.00436 ± 0.0002
316.08 K, Closed cell (Static) method, Liquid | 0.00516 ± 0.00023
318.02 K, Closed cell (Static) method, Liquid | 0.0061 ± 0.00026
320.04 K, Closed cell (Static) method, Liquid | 0.00716 ± 0.0003
321.98 K, Closed cell (Static) method, Liquid | 0.00847 ± 0.00035
324.01 K, Closed cell (Static) method, Liquid | 0.01002 ± 0.00041
326 K, Closed cell (Static) method, Liquid | 0.01174 ± 0.00047
327.92 K, Closed cell (Static) method, Liquid | 0.01375 ± 0.00053
329.93 K, Closed cell (Static) method, Liquid | 0.01614 ± 0.00056
331.9 K, Closed cell (Static) method, Liquid | 0.0189 ± 0.00061
333.88 K, Closed cell (Static) method, Liquid | 0.02202 ± 0.00065
335.86 K, Closed cell (Static) method, Liquid | 0.02563 ± 0.00071
337.93 K, Closed cell (Static) method, Liquid | 0.02998 ± 0.00078
339.82 K, Closed cell (Static) method, Liquid | 0.03463 ± 0.00085
341.89 K, Closed cell (Static) method, Liquid | 0.04012 ± 0.00093
343.72 K, Closed cell (Static) method, Liquid | 0.04593 ± 0.001
345.84 K, Closed cell (Static) method, Liquid | 0.05323 ± 0.0011
347.69 K, Closed cell (Static) method, Liquid | 0.06033 ± 0.0012
349.8 K, Closed cell (Static) method, Liquid | 0.06953 ± 0.0014
351.63 K, Closed cell (Static) method, Liquid | 0.07823 ± 0.0015
353.72 K, Closed cell (Static) method, Liquid | 0.09003 ± 0.0017
355.73 K, Closed cell (Static) method, Liquid | 0.1035 ± 0.0019

Crystal
Details | Molar enthalpy of transition or fusion [kJ/mol] | Normal melting temperature [°C]
[1] | – | 37.2 ± 0.4
[2] | 16.8 ± 0.7 | –

CC(=O)Oc1ccc(C(C)=O)cc1 [4-acetoxyacetophenone]
[1]
Details | vapor or sublimation pressure
298.12 K, Crystal 2, Calculated from knudsen effusion weight loss | 9.3e-05 ± 2e-05 kPa
299.15 K, Crystal 2, Calculated from knudsen effusion weight loss | 0.000105 ± 2e-05 kPa and 0.000106 ± 2e-05 kPa
300.3 K, Crystal 2, Calculated from knudsen effusion weight loss | 0.000123 ± 2e-05 kPa
301.34 K, Crystal 2, Calculated from knudsen effusion weight loss | 0.000143 ± 2.1e-05 kPa and 0.000142 ± 2.1e-05 kPa and 0.000141 ± 2.1e-05 kPa
302.25 K, Crystal 2, Calculated from knudsen effusion weight loss | 0.000159 ± 2.1e-05 kPa
303.23 K, Crystal 2, Calculated from knudsen effusion weight loss | 0.000185 ± 2.1e-05 kPa and 0.000184 ± 2.1e-05 kPa
304.1 K, Crystal 2, Calculated from knudsen effusion weight loss | 0.000202 ± 2.1e-05 kPa and 0.000205 ± 2.1e-05 kPa
305.13 K, Crystal 2, Calculated from knudsen effusion weight loss | 0.00023 ± 2.2e-05 kPa and 0.000232 ± 2.2e-05 kPa and 0.000229 ± 2.2e-05 kPa
306.26 K, Crystal 2, Calculated from knudsen effusion weight loss | 0.000268 ± 2.2e-05 kPa and 0.000266 ± 2.2e-05 kPa
307.14 K, Crystal 2, Calculated from knudsen effusion weight loss | 0.0003 ± 2.3e-05 kPa and 0.000301 ± 2.3e-05 kPa
308.25 K, Crystal 2, Calculated from knudsen effusion weight loss | 0.000347 ± 2.3e-05 kPa and 0.000346 ± 2.3e-05 kPa
309.29 K, Crystal 2, Calculated from knudsen effusion weight loss | 0.000397 ± 2.4e-05 kPa and 0.000395 ± 2.4e-05 kPa and 0.000394 ± 2.4e-05 kPa
315 K, Crystal 1, Closed cell (Static) method | 0.00078 ± 0.00011 kPa
316 K, Crystal 1, Closed cell (Static) method | 0.00087 ± 0.00012 kPa
317 K, Crystal 1, Closed cell (Static) method | 0.00098 ± 0.00012 kPa
317.96 K, Crystal 1, Closed cell (Static) method | 0.00109 ± 0.00012 kPa
318.99 K, Crystal 1, Closed cell (Static) method | 0.00123 ± 0.00012 kPa
319.96 K, Crystal 1, Closed cell (Static) method | 0.00139 ± 0.00012 kPa
321.01 K, Crystal 1, Closed cell (Static) method | 0.00155 ± 0.00013 kPa
321.89 K, Crystal 1, Closed cell (Static) method | 0.00173 ± 0.00013 kPa
322.88 K, Crystal 1, Closed cell (Static) method | 0.00195 ± 0.00013 kPa
323.91 K, Crystal 1, Closed cell (Static) method | 0.00218 ± 0.00014 kPa

[1], Liquid, Closed cell (Static) method
Details | vapor or sublimation pressure [kPa]
328.88 K | 0.00341 ± 0.00017
330.91 K | 0.00406 ± 0.0002
332.89 K | 0.00478 ± 0.00022
334.84 K | 0.00555 ± 0.00025
336.85 K | 0.00658 ± 0.00028
338.81 K | 0.00777 ± 0.00033
340.85 K | 0.00908 ± 0.00037
342.77 K | 0.01045 ± 0.00042
344.77 K | 0.01225 ± 0.00049
346.74 K | 0.01408 ± 0.00053
348.68 K | 0.01633 ± 0.00057
350.65 K | 0.01885 ± 0.00061
352.66 K | 0.02182 ± 0.00065
354.62 K | 0.02505 ± 0.0007
356.57 K | 0.02907 ± 0.00076
358.59 K | 0.03305 ± 0.00082
360.49 K | 0.03795 ± 0.0009
362.51 K | 0.04335 ± 0.00098
364.46 K | 0.04961 ± 0.0011
366.46 K | 0.05645 ± 0.0012
368.38 K | 0.06404 ± 0.0013
370.41 K | 0.07307 ± 0.0014
372.31 K | 0.08205 ± 0.0016
374.34 K | 0.09319 ± 0.0018
376.33 K | 0.1048 ± 0.0019
378.32 K | 0.1186 ± 0.0021

Details | Molar enthalpy of transition or fusion, Crystal 1 [kJ/mol] | Molar enthalpy of transition or fusion, Crystal 2 [kJ/mol] | Normal melting temperature, Crystal 1 [°C] | Triple point temperature, Crystal 2, DSC [K]
[1] | – | – | 51.0 ± 0.6 | 310.1 ± 0.8
[2] | 20.8 ± 0.7 | 0.6 ± 0.4 | – | –
